Test results from patent US6555586B2 (Wyeth, priority 1993, dated 2003).

Tests used:
[1] = test system: dopamine reuptake; details: relative to serotonin and norepinephrine uptake; cited from earlier work
[2] = test system: norepinephrine uptake; details: cited from earlier work
[3] = test system: adrenergic receptors; details: in vitro; cited from earlier work
[4] = test system: histaminergic receptors; details: in vitro; cited from earlier work
[5] = test system: monoamine oxidase; details: cited from earlier work
[6] = test system: obesity in non-depressed outpatients; assay: Obesity Reduction Test: randomized double-blind comparison of venlafaxine and placebo capsules; format: in vivo, humans
Experimental: A randomized double-blind comparison of venlafaxine and placebo capsules was tested as a treatment for obesity in non-depressed outpatients. […] Each participant in the comparison weighed more than 20%, but less than 100%, above the mean value for sex, height and bone structure according to the 1983 Metropolitan Height and Weight Table. The women in the comparison of childbearing potential received a negative pregnancy test result and agreed to use medically acceptable forms of contraception throughout the period covered by the comparison.
Subsequently the dose was increased from 50 mg/day to 150 mg/day through study day 14. On study day 15 the dose was increased to 225 mg/day (3 tablets 3 times a day) and this dose was continued for the remainder of the 70 day study. The patients in both groups were also given instructions to decrease their food intake by 20% and to increase their exercise by the same amount. These directives were given to standardize dietary instructions and to try to prevent patients from starting “crash” diets or exercise programs. A specific diet was not prescribed.
Comparisons within groups were performed on changes from baseline weight and body mass index. Body mass index was computed according to the following formula: [formula]

COc1ccc(C(CN(C)C)C2(O)CCCCC2)cc1 (centres unmarked) [venlafaxine, 1-[2-(dimethylamino)-1-(4-methoxyphenyl)ethyl] cyclohexanol]
inhibition of dopamine reuptake [1]: To a lesser degree, venlafaxine also inhibits dopamine reuptake | inhibition of norepinephrine uptake [2]: potent inhibition | affinity for adrenergic receptors [3]: virtually no affinity | affinity for histaminergic receptors [4]: virtually no affinity | inhibitory activity on monoamine oxidase [5]: no inhibitory activity | mean weight decreases and mean percent decreases from baseline, significance ([6]; beginning at week 1): consistent statistically significant mean weight decreases and mean percent decreases from baseline beginning at week 1 | mean percent decrease from baseline (body weight) ([6]; week 10, venlafaxine up to 225 mg/day): 3.6% | mean decrease in body weight ([6]; week 10, venlafaxine up to 225 mg/day, change from baseline): 7.5 lb
